The results in this text go back to US4113766A, “Oxaprostaglandins” (Pfizer Inc., priority 1975, dated 1978).

The test system of one assay is early pregnant rat. The assay is described as follows: induction of abortion in early pregnant rats. The class given is in vivo. An excerpt:
(§1) These tests include, among others, a test for effect on isolated smooth muscle from guinea pig ileum and rat uterus, a test for effect on histamine induced bronchospasm in guinea pig, a test for effects on dog blood pressure, a test for induction of diarrhea in mice, and a test for the induction of abortion in early pregnant rats.
On the basis of the difference seen in the rat uterus and guinea pig ileum tests with 19-oxaprostaglandin E2, one would expect to have a reduction of the unpleasant gastrointestinal side effects which were encountered when natural PGE2 was employed as an abortion inducer (Lancet, 536, 1971).

For another assay, the system named is estrogenized rat uterus. Put plainly: spasmogenic effect on estrogenized rat uterus in vitro. The assay is classed as tissue-based. To be noted: in words; rat uterus vs guinea pig ileum, Table I.
Source text: as §1
^(c) Threshold dose for spasmogenic effect on estrogenized rat uterus

For assay [1], the system named is histamine induced bronchospasm. The assay is described as follows: protection by aerosol against histamine induced bronchospasm in guinea pig. The assay is classed as in vivo. To be noted: in words, from Table I. Here is the method: as §1
^(b) Per cent protection by 100 μg/ml aerosol dose for histamine
induced bronchospasm in the guinea pig.

`COCCC[C@H](O)/C=C/[C@H]1[C@H](O)CC(=O)[C@@H]1C/C=C\CCCC(=O)O` [19-oxa PGE2, 9-oxo-11α,15α-dihydroxy-19-oxa-cis-5-trans-13-prostadienoic acid]: the “effectiveness relative to natural PGE2 in inducing abortion” value in the assay on early pregnant rat is reported as “as effective as natural PGE2”. For the same molecule, the tissue selectivity entry in the assay on estrogenized rat uterus is reported as “advantage of tissue selectivity”.
Regarding `CCOCCC[C@H](O)/C=C/[C@H]1[C@H](O)CC(=O)[C@@H]1C/C=C\CCCC(=O)O` [19-oxa-ω-homo-PGE2, 9-oxo-11α,15α-dihydroxy-19-oxa-cis-5-trans-13-w-homo-prostadienoic acid], the “bronchodilator selectivity versus natural PGE2” value in assay [1] is on record as “more selective bronchodilator than natural PGE2”.
